# US4092426A, “Novel aminobenzoic acid derivatives, process for preparing the same and pharmaceutical composition containing the same” (Chugai Seiyaku Kabushiki Kaisha, priority 1975, dated 1978)
# Legend:
# triglyceride in liver = assay: Action for decreasing triglyceride in liver (ethanol-induced); type: in vivo, Sprague Dawley strain female rats; settings: Rattus norvegicus, po, 24 h, oral 100 mg/kg, 30 min before ethanol 6 g/kg, read-out: % Prevention (of increase in triglyceride content in the liver)
# Protocol: Sprague Dawley strain female rats each weighing 170 - 200 g which had been fasted for 15 hours were divided into groups of 4 rats each. The rats were orally administered a different test compound in a dose of 100 mg/kg, and 30 minutes after the administration, orally administered ethanol in a dose of 6 g/kg. Twenty-four hours after the administration of ethanol, the liver of each rat was taken out and neutral lipid level in the liver was measured in a conventional manner to calculate the ratio of preventing an increase in triglyceride content in the liver. For a control group, ethanol and, for the other control group, a glucose aqueous solution equivalent in calorific value to the same amount of ethanol were used and the same manner as those of test groups, and for the positive control group, commercially available 2-mercaptopropionylglycine was used instead of the test compound.
# *The % prevention was calculated by the following
# [1] = tested on: plaque forming cells (PFC) in the spleen; assay: Activity for Recovering Immune Depletion by cortisone: plaque forming cells (PFC) in the spleen; type: in vivo, IV CS strain male mice; settings: cortisone 60 mg/kg i.p. alone
# Protocol: As test animals, IV CS strain male mice (5 week old) were used by dividing them into groups of 5 members each. Each mouse was intraperitoneally administered with cortisone in a dose of 60 mg/kg once a day for 5 days. Three days after the first administration, the sensitization with an antigen, sheep red blood cell (SRBC), was made by injecting the antigen into the mouse through the tail vein. Each mouse was orally administered with the test compound, disodium salt of N-2'-carboxyphenyl-4-chloroanthranilic acid, a day after the sensitization. Five days after the sensitization, the number of plaque forming cells (PFC) in the spleen was measured in a usual manner.
# [2] = tested on: concentration of BSP in blood; assay: Bromosulfophthalein (BSP) Test; type: in vivo, Sprague Dawley strain female rats; settings: rat, oral 100 mg/kg; BSP 28 mg/head i.v.; 30 min after; ** P<0.01
# Protocol: Sprague Dawley strain female rats each weighing 150 - 190 g which had been fasted for 15 hours were divided into groups of 4 rats each. The rats were orally administered a different test compound in a dose of 100 mg/kg, and 60 minutes after the administration, each of the rats was injected through the tail vein with 28 mg/head of BSP. Thirty minutes after the injection, the blood of each rat was sampled from the heart and the concentration of BSP was determined in a conventional colorimetric manner. As control, a physiological saline solution was orally administered instead of the test compound.
# antibody in blood = assay: Titer of Antibody in Blood after sensitization with SRBC (hemolysing method); type: in vivo, Sprague Dawley strain male rats; settings: administered on the day and a day after the sensitization with SRBC
# Protocol: (§1) Sprague Dawley strain male rats weighing 200 - 220 g which were divided into 7 groups of 5 or 6 rats each were used as test animals.
# (§2) The six groups were orally administered by one shot with the test compound, N-2'-carboxyphenyl-4-chloroanthranilic acid in a dose of 100 mg/kg on six different days, a day before the sensitization, on the date, a day after, two days after, three days after and four days after the sensitization with an antigen (SRBC: Sheep red blood cell). The SRBC was intraveneously injected in the rat through the tail vein in an amount of 1 ml as a 2% aqueous suspension. For control groups, a physiological saline solution was used in the same amount and in the same manner as those of the test groups on the day of sensitization.
# (§3) Five days after the sensitization, the rats were sacrificed and the spleen of each of the rats was taken out and the blood was sampled.
# (§4) The number of plaque forming cells and titers in blood were determined by the Jerne's plaque method and a hemolysing method, respectively.
# [3] = tested on: concentration of ICG in the blood; assay: Indocyanogree (ICG) Test; type: in vivo, Sprague Dawley strain male rats; settings: rat, oral 100 mg/kg; ICG 2 mg/head i.v.; 15 min after; ** P<0.02
# Protocol: Sprague Dawley strain male rats weighing 180 - 210 g which had been fasted for 15 hours were divided into groups of 4 rats each. The rats were orally administered a different test compound in a dose of 100 mg/kg, and 60 minutes after the administration, each of the rats was injected through the tail vein with 2 mg/head of ICG. Fifteen minutes after the injection, the blood of each rat was sampled from the heart and the concentration of ICG in the blood was determined in a conventional colorimetric manner. As control, a physiological saline solution was used.
# [4] = tested on: concentration of bilirubin in the blood; assay: Bilirubin Excretion Activity; type: in vivo, Sprague Dawley strain female rats; settings: rat, oral 100 mg/kg; bilirubin i.v.; 20 min after; ** P<0.02
# Protocol: Sprague Dawley strain female rats each weighing 160 - 200 g which had been fasted for 15 hours were divided into groups of 6 rats each. The rats were orally administered with a different test compound in a dose of 100 mg/kg, and 60 minutes after the administration, each of the rats was injected through the tail vein with […] of bilirubin. Twenty minutes after the injection, the blood of each rat was sampled from the heart and the concentration of bilirubin in the blood was determined in a conventional manner.
# As control, a physiological saline solution was used instead of the test compound.
# Acute Toxicity = assay: Acute Toxicity; design: species or system Wistar-Imamichi strain male and female rats; settings: rat, in vivo, po, suspension in 5% gum arabi
# Protocol: Acute toxicity of N-2'-carboxyphenyl-4-chloroanthranilic acid was determined using Wistar-Imamichi strain male and female rats (11 week old) as test animals. The test compound was orally administered as a suspension in a 5% gum arabi aqueous solution.
# plaque forming cells = assay: Increase in Number of Plaque Forming Cells after sensitization with SRBC (Jerne's plaque method); type: in vivo, Sprague Dawley strain male rats
# Protocol: as §1, §2, §3, §4
# [5] = tested on: Pseudomonas aeruginosa Pa-II; assay: Activity for Protecting from Infection by Bucillus Pyocyaneous, with carbenicillin; type: in vivo; settings: mouse, test compound (combination arm) 2 mg/head oral; for Number of Survival Animals/Number of Tested Animals: 54 hours
# Protocol: As test animals, ddY strain male mice (5 week old) which were divided into groups of 9 members each were used. Each mouse was intraperitoneally administered with 10^6 Pseudomonas aeruginosa Pa-II, and 1.5 hours after the administeration, subcutaneously administered one shot of carbenicillin, an antibiotic. The test compound, disodium salt of N-2'-carboxyphenyl-4-chloroanthranilic acid, was orally administered once a day in a dose of 2 mg/head one and two days before the inoculation, respectively. The activity of the test compound was evaluated by observing the test animals for 54 hours after the inoculation.
structure (smiles),measurement,setting,value
Cc1c(Cl)ccc(C(=O)O)c1Nc1ccccc1C(=O)O [N-2'-carboxyphenyl-4-chloro-3-methylanthranilic acid],inhibition in vivo at 100 mg/kg,triglyceride in liver,40.5%
Cc1ccc(Nc2ccccc2C(=O)O)c(C(=O)O)c1 [N-2'-carboxyphenyl-5-methylanthranilic acid],inhibition in vivo at 100 mg/kg,triglyceride in liver,20.1%
Cc1cccc(C(=O)O)c1Nc1cc(Cl)ccc1C(=O)O [N-2'-carboxy-6'-methylphenyl-4-chloroanthranilic acid],inhibition in vivo at 100 mg/kg,triglyceride in liver,25.2%
"C[C@]12CCC(=O)C=C1CC[C@@H]1[C@@H]2C(=O)C[C@@]2(C)[C@H]1CC[C@]2(O)C(=O)CO [Cortisone, cortisone, reference compound]",number of PFC per spleen vs control without cortisone,[1],reduced to one third
"CC(S)C(=O)NCC(=O)O (stereo not shown) [2-mercaptopropionylglycine, reference compound]",inhibition in vivo at 100 mg/kg,triglyceride in liver,9.3%
O=C(O)c1ccccc1Nc1cc(Cl)ccc1C(=O)O [N-2'-carboxyphenyl-4-chloroanthranilic acid],% Remain of BSP,[2],17.3±8.4%
same,increase in titers in blood,antibody in blood,significant increase
same,% Remain of ICG,[3],5.1 ± 0.2%
same,% Remain of Bilirubin,[4],39.7 ± 13.3%
same,LD50,Acute Toxicity; female rat,2600 mg/kg
same,LD50,Acute Toxicity; male rat,2100 mg/kg
same,inhibition in vivo at 100 mg/kg,triglyceride in liver,67.1%
same,Number of plaque forming cell/10^6 cells,"plaque forming cells; 100 mg/kg oral, day 0 based on the sensitization, P<0.01",193.4 ± 26.6 cell/10^6 cells
same,Number of plaque forming cell/10^6 cells,"plaque forming cells; 100 mg/kg oral, day +1 based on the sensitization, P<0.01",316.8 ± 38.2 cell/10^6 cells
same,Number of plaque forming cell/10^6 cells,"plaque forming cells; 100 mg/kg oral, day +2 based on the sensitization",76.5 ± 16.3 cell/10^6 cells
same,Number of plaque forming cell/10^6 cells,"plaque forming cells; 100 mg/kg oral, day +3 based on the sensitization",101.0 ± 11.2 cell/10^6 cells
same,Number of plaque forming cell/10^6 cells,"plaque forming cells; 100 mg/kg oral, day +4 based on the sensitization",95.5 ± 35.3 cell/10^6 cells
same,Number of plaque forming cell/10^6 cells,"plaque forming cells; 100 mg/kg oral, day -1 based on the sensitization, control 49.7 ± 16.0",93.2 ± 28.6 cell/10^6 cells
same,increase in number of plaque forming cells relative to control group,"plaque forming cells; 100 mg/kg oral, maximum vs control",about six times as much as the value of the control group
same,increase in the number of plaque forming cells,plaque forming cells; administered on the date and a day after the sensitization,significant increase
O=C(O)c1ccc(Cl)cc1Nc1cc(Cl)ccc1C(=O)O [N-2'-carboxy-5'-chlorophenyl-4-chloroanthranilic acid],inhibition in vivo at 100 mg/kg,triglyceride in liver,57.2%
Cc1ccc(Nc2cc(Cl)ccc2C(=O)O)c(C(=O)O)c1 [N-2'-carboxy-4'-methylphenyl-4-chloroanthranilic acid],inhibition in vivo at 100 mg/kg,triglyceride in liver,53.2%
O=C(O)c1ccccc1Nc1ccc(Cl)cc1C(=O)O [N-2'-carboxyphenyl-5-chloroanthranilic acid],inhibition in vivo at 100 mg/kg,triglyceride in liver,30%
"Cc1ccc(C)c(C(=O)O)c1Nc1cc(Cl)ccc1C(=O)O [N-2'-carboxy-3',6'-dimethylphenyl-4-chloroanthranilic acid]",inhibition in vivo at 100 mg/kg,triglyceride in liver,45.8%
"CC1(C)S[C@@H]2[C@H](NC(=O)C(C(=O)O)c3ccccc3)C(=O)N2[C@H]1C(=O)O (stereo partly shown) [Carbenicillin, carbenicillin]",Number of Survival Animals/Number of Tested Animals,[5]; Carbenicillin 10 mg/head s.c.,0/9
same,Number of Survival Animals/Number of Tested Animals,[5]; Carbenicillin 20 mg/head s.c.,2/9
same,Number of Survival Animals/Number of Tested Animals,[5]; Carbenicillin 40 mg/head s.c.,9/9
same,ED50 (dose of carbenicillin),[5]; 10^6 Pseudomonas aeruginosa Pa-II i.p.,24.1 mg/head
